Assay results from ChEMBL document CHEMBL4390638, “SYA 013 analogs as moderately selective sigma-2 (σ2) ligands: Structure-affinity relationship studies” (Bioorg Med Chem, 2019).

How the values were obtained:
[1] = target: Sigma non-opioid intracellular receptor 1 (Homo sapiens, UniProt Q99720); assay: Displacement [3H]-Pentazocine from sigma 1 receptor (unknown origin) expressed in HEK cell membranes
[2] = target: Sigma intracellular receptor 2 (Homo sapiens, UniProt Q5BJF2); assay: Displacement [3H]-DTG from sigma 2 receptor (unknown origin) expressed in HEK cell membranes
Homo sapiens = organism: Homo sapiens; assay: Selectivity index, ratio of Ki for displacement [3H]-Pentazocine from sigma 1 receptor (unknown origin) expressed in HEK cell membranes to Ki for [3H]-DTG from sigma 2 receptor (unknown origin) expressed in HEK cell membranes

Chain of Sigma intracellular receptor 2 (Q5BJF2 whole entry): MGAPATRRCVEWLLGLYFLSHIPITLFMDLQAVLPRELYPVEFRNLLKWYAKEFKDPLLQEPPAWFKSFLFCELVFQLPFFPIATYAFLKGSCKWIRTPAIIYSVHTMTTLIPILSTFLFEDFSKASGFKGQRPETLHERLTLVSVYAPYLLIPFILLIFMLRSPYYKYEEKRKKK
Chain of Sigma non-opioid intracellular receptor 1 (Q99720 whole entry): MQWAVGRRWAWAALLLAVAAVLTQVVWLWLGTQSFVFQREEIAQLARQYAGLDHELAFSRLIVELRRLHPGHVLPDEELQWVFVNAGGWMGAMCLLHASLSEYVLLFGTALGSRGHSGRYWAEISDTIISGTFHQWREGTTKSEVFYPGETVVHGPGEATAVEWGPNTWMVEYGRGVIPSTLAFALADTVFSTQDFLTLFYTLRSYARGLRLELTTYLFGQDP

Ki ([1]; read-out: Ki) [nM]	Ki [2] [nM]	Ki ([1]; read-out: pKi (converted)) [nM]	Compound	Ratio Ki (Homo sapiens)
403	52		O=C(CCCN1CCN(c2ccccn2)CC1)c1ccc(F)cc1 [AZAPERONE]	7.8
70	13.1		O/N=C(/CCCN1CCCN(c2ccccn2)CC1)c1ccc(F)cc1	5.3
25	8.4		O=C(CCCN1CCN(c2ccc(Cl)cn2)CC1)c1ccc(F)cc1	3
63	44		O=C(CCCN1CCCN(c2ncccn2)CC1)c1ccc(F)cc1	1.4
30	8		O=C(CCCN1CCCN(c2ccc(Cl)cn2)CC1)c1ccc(F)cc1	3.8
3.6	8.5		Fc1ccc(CCCCN2CCCN(c3ccc(Cl)cc3)CC2)cc1	0.4
113	2.7		O/N=C(/CCCN1CCCN(c2ccc(Cl)cn2)CC1)c1ccc(F)cc1	41.8
2.9	5.9		Fc1ccc(OCCCN2CCCN(c3ccc(Cl)cc3)CC2)cc1	0.5
77.1	25.1		c1ccc(OCCCN2CCN(c3ccccc3)CC2)cc1	3.1
	32	457	O=C(CCCN1CCCN(c2ccccn2)CC1)c1ccc(F)cc1	14
51.7	33		Clc1ccc(N2CCN(CCCOc3ccccc3)CC2)cc1	1.6
148	26		O/N=C(/CCCN1CCCN(c2ncccn2)CC1)c1ccc(F)cc1	5.7
1150	600		[O-][S+](CCCN1CCN(c2ccc(Cl)cc2)CC1)c1ccc(F)cc1 (stereo unspecified)	1.9
7.2	2.2		Fc1ccc(SCCCN2CCCN(c3ccc(Cl)cn3)CC2)cc1	3.3
95	43		Fc1ccc(CCCCN2CCN(c3ccc(Cl)cn3)CC2)cc1	2.2
41.5	5.12		Fc1ccc(OCCCN2CCN(c3ccccc3)CC2)cc1	8.1

Compound	Ki ([1]; read-out: Ki) [nM]	Ki [2] [nM]	Ki ([1]; read-out: pKi (converted)) [nM]	Ratio Ki (Homo sapiens)
OC1(c2ccc(Cl)cc2)CC2CCC(C1)N2CCCOc1ccc(F)cc1 (stereo unspecified)	166	18		
OC1(c2ccc(Cl)cc2)CC2CCC(C1)N2CCCSc1ccc(F)cc1 (stereo unspecified)	81			
OC1(c2ccc(Cl)cc2)CC2CCC(C1)N2CCCSc1cccc(F)c1 (stereo unspecified)	71	8.1		8.8
OC1(c2ccc(Cl)cc2)CC2CCC(C1)N2CCCSc1ccccc1F (stereo unspecified)	57	2.2		25.9
Fc1ccc(CCCCN2CCN(c3ccc(Cl)cc3)CC2)cc1	36			
OC1(c2ccc(Cl)cc2)CC2CCC(C1)N2CCCCc1ccc(F)cc1 (stereo unspecified)	22	27		0.8
